Test results from patent US7135556B2, “NPC1L1 (NPC3) and methods of use thereof” (Schering Corporation, priority 2002, dated 2006).

Key:
untransfected CHO cells = assay: FACS analysis of BODIPY-labeled ezetimibe binding, untransfected CHO cells; parameters: species or system chinese hamster; details: 100 nM BODIPY-labeled ezetimibe
Method: (§1) “BODIPY” is a fluorescent group which was used to detect the BODIPY-ezetimibe. Chinese hamster ovary (CHO) cells were transiently transfected with rat NPC1L1 DNA (rNPC1L1/CHO), mouse NPC1L1 DNA (mNPC1L1/CHO), mouse SR-B1 DNA (mSRBI/CHO) or EGFP DNA (EGFP/CHO). EGFP is enhanced green fluorescent protein which was used as a positive control. […] Control experiments were also performed wherein the cells were not labeled with the BODIPY-ezetimibe and wherein untransfected CHO cells were labeled with the BODIPY-ezetimibe.

rat NPC1L1 = molecular target: T1, rat NPC1L1 (Rattus norvegicus, UniProt Q6T3U3); assay: FACS analysis of BODIPY-labeled ezetimibe binding, rNPC1L1/CHO; details: 100 nM BODIPY-labeled ezetimibe
T1 construct: using clone specific PCR primers to generate the ORF flanked by appropriate restriction sites; expressed in transfected cells
Method: as §1

mouse SR-B1 = molecular target: T2, mouse SR-B1 (Mus musculus, UniProt Q61009); assay: FACS analysis of BODIPY-labeled ezetimibe binding, mSRBI/CHO; details: 100 nM BODIPY-labeled ezetimibe
T2 construct: expressed in transfected cells
T2 sequence (Q61009 1-509): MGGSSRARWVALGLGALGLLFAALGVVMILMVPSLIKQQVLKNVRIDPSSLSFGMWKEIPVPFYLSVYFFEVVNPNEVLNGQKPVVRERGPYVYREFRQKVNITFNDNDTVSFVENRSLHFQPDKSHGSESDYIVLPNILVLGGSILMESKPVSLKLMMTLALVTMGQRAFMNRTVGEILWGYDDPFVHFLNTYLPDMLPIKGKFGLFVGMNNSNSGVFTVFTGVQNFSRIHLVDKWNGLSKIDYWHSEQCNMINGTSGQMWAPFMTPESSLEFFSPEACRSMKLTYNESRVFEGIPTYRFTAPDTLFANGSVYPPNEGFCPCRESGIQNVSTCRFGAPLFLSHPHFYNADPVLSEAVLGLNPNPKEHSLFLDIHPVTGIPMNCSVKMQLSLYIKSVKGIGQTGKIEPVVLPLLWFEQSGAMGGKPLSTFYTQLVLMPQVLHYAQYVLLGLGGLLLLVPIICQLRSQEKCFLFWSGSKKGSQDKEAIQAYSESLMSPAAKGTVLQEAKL
Method: as §1

mouse NPC1L1 = molecular target: T3, mouse NPC1L1 (Mus musculus, UniProt Q6T3U4); assay: FACS analysis of BODIPY-labeled ezetimibe binding, mNPC1L1/CHO; details: 100 nM BODIPY-labeled ezetimibe
T3 construct: using clone specific PCR primers to generate the ORF flanked by appropriate restriction sites; expressed in transfected cells
Method: as §1

cholesterol absorption = assay: Cholesterol absorption in mice, dual fecal isotope ratio method (cholesterol/sitostanol) (Example 24); assay type: in vivo, mouse; details: chow diet
Method: Cholesterol absorption in the mice was determined by the dual fecal isotope ratio method as described by Altmann et al. (Biochim. Biophys. Acta. 1580(1):77–93 (2002)). […] Mice were gavaged with ^14C-cholesterol (1 μCi, 0.1 mg unlabeled cholesterol) and ^3H-sitostanol (2 μCi) in 0.1 ml corn oil. Feces were collected for 2 days and fecal ^14C-cholesterol and ^3H-sitostanol levels were determined by combustion in a Packard Oxidizer. The fraction of cholesterol absorbed, as evaluated by the fecal dual isotope technique, was similar in wild type (+/+) and heterozygous mice (+/−) fed a chow diet (heterozygous mice absorbed 46±5% and age matched wild type mice absorbed 51±3% of the dose of ^14C-cholesterol).

SR-B1 = molecular target: T4, SR-B1 (Mus musculus, UniProt Q61009); assay: Cholesterol uptake assay (Example 4), [3H]-cholesterol, CHO cells expressing SR-B1; assay type: cell-based; details: 10 μM ezetimibe
T4 construct: expressed in transfected cells; host or cells: CHO cells
T4 sequence (Q61009 1-509): T2 sequence (Q61009 1-509)
From the text: The cells were harvested and the lipids were organically extracted. The extracted lipids were spotted on thin-layer chromatography (TLC) plates and resolved within an organic vapor phase. The free cholesterol bands for each assay were isolated and counted in a scintillation counter.

Row | Compound | staining of cells (FACS) (untransfected CHO cells) | staining of cells (FACS) (rat NPC1L1) | staining of cells (FACS) (mouse SR-B1) | staining of cells (FACS) (mouse NPC1L1) | fraction of cholesterol absorbed (of the dose of 14C-cholesterol) (cholesterol absorption; NPC1L1 knockout mice (−/−), ezetimibe 10 mg/kg/day) [%] | fraction of cholesterol absorbed (of the dose of 14C-cholesterol) (cholesterol absorption; wild type mice, ezetimibe 10 mg/kg daily) [%] | [3H]-cholesterol uptake (SR-B1)
1 | N-(4,4-difluoro-5.7-dimethyl-4-bora-3a.4a-diaza-s-indacene-3-vl)methyl iodoacetamide/ezetimibe [BODIPY-ezetimibe] | No staining | No staining | detected | No staining | – | – | –
2 | O=C1[C@H](CC[C@H](O)c2ccc(F)cc2)[C@@H](c2ccc(O)cc2)N1c1ccc(F)cc1 [ezetimibe] | – | – | – | – | 16.2±0.6 | 16.1±0.3 | inhibited
